Consider 35 compounds from patent US11597702B2, “Substituted pyrazoles FFA4/GPR120 receptor agonists” (AXXAM S.P.A., priority 2018, dated 2023).

The structures appear in SMILES notation.

The assay addresses T1, GPR120 (Homo sapiens, UniProt Q5NUL3).
T1 construct: expressed in transfected cells; host or cells: CHO mitoPhotinaGPR120 cells
T1 sequence (Q5NUL3 1-361): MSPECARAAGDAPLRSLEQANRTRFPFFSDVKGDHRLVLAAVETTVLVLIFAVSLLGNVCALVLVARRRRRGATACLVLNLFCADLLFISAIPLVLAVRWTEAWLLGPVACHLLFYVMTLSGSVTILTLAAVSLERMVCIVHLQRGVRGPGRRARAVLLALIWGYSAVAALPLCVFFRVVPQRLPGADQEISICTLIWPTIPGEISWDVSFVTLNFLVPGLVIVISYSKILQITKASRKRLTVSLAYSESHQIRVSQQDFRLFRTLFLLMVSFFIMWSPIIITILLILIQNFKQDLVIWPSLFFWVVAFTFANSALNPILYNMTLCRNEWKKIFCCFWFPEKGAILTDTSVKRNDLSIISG
In words: GPR120 agonism in CHO mitoPhotinaGPR120 cell based assay with fluorescent (Fluo-8 calcium, FLIPRTetra) readout, Agonist Mode, dose response. The conditions noted are these: CHO mitoPhotinaGPR120 cells, Fluo-8 No Wash Ca2+ dye, dose response in quadruplicate, 0.0033% fatty acid free BSA. On the procedure:
Compounds of the invention were tested for GPR120 agonism in a CHO mitoPhotinaGPR120 cell based assay with fluorescent readout in Agonist Mode in dose response in quadruplicate with intra-plate modality.
Twenty (20) h after seeding, growth medium was manually removed and cells were starved in the presence of 25 μL/w of Standard Tyrode's Buffer. After 3 h, cells were loaded with 20 μL/w of 0.5× Fluo-8 No Wash (AAT Bioquest, Inc.) Ca2+ sensitive dye prepared in Standard Tyrode's Buffer. Cells were incubated for 1 h at room temperature in the dark. Ten (10) μL/w 3× of controls and compounds were diluted in Standard Tyrode's Buffer+0.01% fatty acid free BSA (final concentration=0.0033%) and injected at the FLIPRTetra®, recording the kinetic calcium traces for 3 minutes. Standard Tyrode's buffer composition: 5 mM KCl, 130 mM NaCl, 2 mM CaCl2), 5 mM NaHCO3, 1 mM MgCl2, 20 mM HEPES, pH7.4.
The term EC50 denotes the concentration that produces a half-maximal response. For the compound `CCc1ccc(-n2nc(C)c(C#N)c2COc2ccc(CCO)cc2)cc1` [Example 78, 1-(4-ethylphenyl)-5-[[4-(2-hydroxyethyl)phenoxy]methyl]-3-methyl-pyrazole-4-carbonitrile], the EC50 turned out to be 0.38 µM.

For the compound `COc1cccc(-n2nc(C)c(C#N)c2COc2ccc(CCO)cc2)c1` [Example 79, 5-[[4-(2-hydroxyethyl)phenoxy]methyl]-1-(3-methoxyphenyl)-3-methyl-pyrazole-4-carbonitrile], the EC50 worked out at 1.64 µM.

As to `COc1ccc(-n2nc(C)c(C#N)c2COc2ccc(CCO)cc2)cc1` [Example 80, 5-[[4-(2-hydroxyethyl)phenoxy]methyl]-1-(4-methoxyphenyl)-3-methyl-pyrazole-4-carbonitrile], the EC50 came to 0.64 µM.

`Cc1nn(-c2ccccc2F)c(COc2ccc(CCO)cc2)c1C#N` [Example 82, 1-(2-fluorophenyl)-5-[[4-(2-hydroxyethyl)phenoxy]methyl]-3-methyl-pyrazole-4-carbonitrile]: the half-maximal effective concentration (EC50) was determined as 3.41 µM.

On to `Cc1nn(-c2ccc(F)cc2)c(COc2ccccc2)c1C#N` [Example 83, 1-(4-fluorophenyl)-3-methyl-5-(phenoxymethyl)pyrazole-4-carbonitrile], for which the EC50 was 2.22 µM.

Take `Cc1nn(-c2ccc(F)cc2)c(COc2ccc(CCO)cc2)c1C#N` [Example 84, 1-(4-fluorophenyl)-5-[[4-(2-hydroxyethyl)phenoxy]methyl]-3-methyl-pyrazole-4-carbonitrile]: the EC50 is 1.54 µM.

`Cc1nn(-c2ccc(F)cc2)c(COc2cccc(F)c2)c1C#N` [Example 85, 5-[(3-fluorophenoxy)methyl]-1-(4-fluorophenyl)-3-methyl-pyrazole-4-carbonitrile]: the EC50 came out at 4.55 µM.

Turning to `Cc1ccccc1OCc1c(C#N)c(C)nn1-c1ccc(F)cc1` [Example 86, 1-(4-fluorophenyl)-3-methyl-5-[(2-methylphenoxy)methyl]pyrazole-4-carbonitrile], the 50% effective concentration (EC50) worked out at 1.58 µM.

`Cc1nn(-c2ccc(F)cc2)c(COc2ccc(CCCO)cc2)c1C#N` [Example 87, 1-(4-fluorophenyl)-5-[[4-(3-hydroxypropyl)phenoxy]methyl]-3-methyl-pyrazole-4-carbonitrile]: the EC50 stood at 0.18 µM.

For `Cc1nn(Cc2ccccc2)c(COc2ccc(CCO)cc2)c1C#N` [Example 88, 1-benzyl-5-[[4-(2-hydroxyethyl)phenoxy]methyl]-3-methyl-pyrazole-4-carbonitrile], the EC50 is 11.2 µM.

As for `Cc1nn(Cc2ccccc2)c(COc2ccc(CCCO)cc2)c1C#N` [Example 89, 1-benzyl-5-[[4-(3-hydroxypropyl)phenoxy]methyl]-3-methyl-pyrazole-4-carbonitrile], the EC50 turned out to be 0.99 µM.

In the case of `Cc1nn(Cc2ccccc2)c(COc2c(F)cc(CCCO)cc2F)c1C#N` [Example 90, 1-benzyl-5-[[2,6-difluoro-4-(3-hydroxypropyl)phenoxy]methyl]-3-methyl-pyrazole-4-carbonitrile], the concentration for a half-maximal effect (EC50) worked out at 0.31 µM.

For `COc1ccc(Cn2nc(C)c(C#N)c2COc2ccc(CCO)cc2)cc1` [Example 91, 5-[[4-(2-hydroxyethyl)phenoxy]methyl]-1-[(4-methoxyphenyl)methyl]-3-methyl-pyrazole-4-carbonitrile], the EC50 amounted to 16.5 µM.

For `Cc1nn(-c2ccccc2)c(C(C)Oc2ccc(CCO)cc2)c1C#N` (centres unmarked) [Example 92, 5-[1-[4-(2-hydroxyethyl)phenoxy]ethyl]-3-methyl-1-phenyl-pyrazole-4-carbonitrile], the EC50 was found to be 3.66 µM.

`Cc1nn(-c2ccccc2)c(C(C)Oc2c(F)cc(CCCO)cc2F)c1C#N` (centres unmarked) [Example 93, 5-[1-[2,6-difluoro-4-(3-hydroxypropyl)phenoxy]ethyl]-3-methyl-1-phenyl-pyrazole-4-carbonitrile]: the EC50 stood at 0.33 µM.

For `Cc1nn(-c2ccccc2)c(C(F)(F)Oc2ccc(CCO)cc2)c1C#N` [Example 94, 5-[difluoro-[4-(2-hydroxyethyl)phenoxy]methyl]-3-methyl-1-phenyl-pyrazole-4-carbonitrile], the EC50 is 1.35 µM.

Turning to `Cc1nn(-c2ccccc2)c(C(F)(F)Oc2ccc(CCCO)cc2)c1C#N` [Example 95, 5-[difluoro-[4-(3-hydroxypropyl)phenoxy]methyl]-3-methyl-1-phenyl-pyrazole-4-carbonitrile], the EC50 worked out at 0.83 µM.

Take `Cc1nn(-c2ccccc2)c(C(F)(F)Oc2c(F)cc(CCCO)cc2F)c1C#N` [Example 96, 5-[[2,6-difluoro-4-(3-hydroxypropyl)phenoxy]-difluoro-methyl]-3-methyl-1-phenyl-pyrazole-4-carbonitrile]: the EC50 was found to be 0.52 µM.

In the case of `Cc1nn(-c2ccccc2)c(COCc2ccc(C#N)cc2)c1C#N` [Example 97, 5-[(4-cyanophenyl)methoxymethyl]-3-methyl-1-phenyl-pyrazole-4-carbonitrile], the concentration giving a half-maximal response (EC50) came out at 2.8 µM.

For the compound `Cc1nn(-c2ccc(F)cc2)c(COCc2ccccc2)c1C#N` [Example 98, 5-(benzyloxymethyl)-1-(4-fluorophenyl)-3-methyl-pyrazole-4-carbonitrile], the EC50 came out at 9.9 µM.

Consider `Cc1nn(-c2cccc(F)c2)c(COc2ccc(CCO)cc2)c1C#N` [Example 101, 1-(3-fluorophenyl)-5-[[4-(2-hydroxyethyl)phenoxy]methyl]-3-methyl-pyrazole-4-carbonitrile], for which the concentration for a half-maximal effect (EC50) came out at 1.48 µM.

As to `Cc1nn(-c2ccccn2)c(COc2ccc(CCO)cc2)c1C#N` [Example 102, 5-[[4-(2-hydroxyethyl)phenoxy]methyl]-3-methyl-1-(2-pyridyl)pyrazole-4-carbonitrile], the half-maximal effective concentration (EC50) was 0.53 µM.

For `Cc1nn(-c2cccnc2)c(COc2ccc(CCO)cc2)c1C#N` [Example 103, 5-[[4-(2-hydroxyethyl)phenoxy]methyl]-3-methyl-1-(3-pyridyl)pyrazole-4-carbonitrile], the EC50 was 9.22 µM.

For `Cc1nn(-c2ccncc2)c(COc2ccc(CCO)cc2)c1C#N` [Example 104, 5-[[4-(2-hydroxyethyl)phenoxy]methyl]-3-methyl-1-(4-pyridyl)pyrazole-4-carbonitrile], the EC50 was determined as 10.4 µM.

Regarding `Cc1nn(-c2ncccn2)c(COc2ccc(CCO)cc2)c1C#N` [Example 105, 5-[[4-(2-hydroxyethyl)phenoxy]methyl]-3-methyl-1-pyrimidin-2-yl-pyrazole-4-carbonitrile], the EC50 is 12.6 µM.

Regarding `Cc1nn(-c2cccnn2)c(COc2ccc(CCO)cc2)c1C#N` [Example 106, 5-[[4-(2-hydroxyethyl)phenoxy]methyl]-3-methyl-1-pyridazin-3-yl-pyrazole-4-carbonitrile], the EC50 was found to be 2.49 µM.

With `Cc1nn(-c2ccc(C#N)cc2)c(COc2ccc(CCO)cc2)c1C#N` [Example 107, 1-(4-cyanophenyl)-5-[[4-(2-hydroxyethyl)phenoxy]methyl]-3-methyl-pyrazole-4-carbonitrile], the EC50 is 8.15 µM.

On to `Cc1nn(-c2ccc(C(F)(F)F)cc2)c(COc2ccc(CCO)cc2)c1C#N` [Example 109, 5-[[4-(2-hydroxyethyl)phenoxy]methyl]-3-methyl-1-[4-(trifluoromethyl)phenyl]pyrazole-4-carbonitrile], for which the EC50 worked out at 3.22 µM.

With `Cc1nn(-c2c(F)cccc2F)c(COc2ccc(CCO)cc2)c1C#N` [Example 112, 1-(2,6-difluorophenyl)-5-[[4-(2-hydroxyethyl)phenoxy]methyl]-3-methyl-pyrazole-4-carbonitrile], the 50% effective concentration (EC50) was found to be 10.2 µM.

Turning to `Cc1nn(-c2ccc(F)cc2F)c(COc2ccc(CCO)cc2)c1C#N` [Example 114, 1-(2,4-difluorophenyl)-5-[[4-(2-hydroxyethyl)phenoxy]methyl]-3-methyl-pyrazole-4-carbonitrile], the half-maximal effective concentration (EC50) was determined as 5.55 µM.

Consider `Cc1nn(-c2ccc(OC(F)(F)F)cc2)c(COc2ccc(CCO)cc2)c1C#N` [Example 115, 5-[[4-(2-hydroxyethyl)phenoxy]methyl]-3-methyl-1-[4-(trifluoromethoxy)phenyl]pyrazole-4-carbonitrile], for which the EC50 stood at 4.62 µM.

`Cc1nn(-c2ccc(Cl)nn2)c(COc2ccc(CCO)cc2)c1C#N` [Example 116, 1-(6-chloropyridazin-3-yl)-5-[[4-(2-hydroxyethyl)phenoxy]methyl]-3-methyl-pyrazole-4-carbonitrile]: the EC50 turned out to be 1.63 µM.

Take `Cc1nn(C2CCCC2)c(COc2ccc(CCO)cc2)c1C#N` [Example 117, 1-cyclopentyl-5-[[4-(2-hydroxyethyl)phenoxy]methyl]-3-methyl-pyrazole-4-carbonitrile]: the EC50 amounted to 1.2 µM.

Turning to `Cc1nn(C2CCCCC2)c(COc2ccc(CCO)cc2)c1C#N` [Example 118, 1-cyclohexyl-5-[[4-(2-hydroxyethyl)phenoxy]methyl]-3-methyl-pyrazole-4-carbonitrile], the EC50 is 2.24 µM.

As for `Cc1cc(COc2ccc(CCO)cc2)n(-c2ccccc2)n1` [Example 126, 2-[4-[(5-methyl-2-phenyl-pyrazol-3-yl)methoxy]phenyl]ethanol], the EC50 was found to be 5.92 µM.
